Measurements published in the supplement of paper PMC13380429.

What was measured:
Conditions in all cases: 72 h
[1] = system: U2OS; experiment: relative viability EC50 (midpoint between 100% and the lowest measured viability); higher = less toxic
[2] = system: Vero E6; experiment: as above
[3] = system: HepG2; experiment: as above
[4] = system: Caco-2; experiment: as above
[5] = system: Calu-3; experiment: as above
[6] = system: U2OS; experiment: cell viability relative to DMSO; higher = less toxic
[7] = system: Vero E6; experiment: as above
[8] = system: HepG2; experiment: as above
[9] = system: Caco-2; experiment: as above
[10] = system: Calu-3; experiment: as above
[11] = system: U2OS; experiment: drug sensitivity score (DSS) for viability; higher = more toxic; extreme values may be limits of the assay
[12] = system: Vero E6; experiment: as above
[13] = system: HepG2; experiment: as above
[14] = system: Caco-2; experiment: as above
[15] = system: Calu-3; experiment: as above

Compound	relative viability EC50 [1] [µM]	relative viability EC50 [2] [µM]	relative viability EC50 [3] [µM]	relative viability EC50 [4] [µM]	relative viability EC50 [5] [µM]	cell viability ([6]; 1 nM) [%]	cell viability ([6]; 10 nM) [%]	cell viability ([6]; 100 nM) [%]	cell viability ([6]; 1000 nM) [%]	cell viability ([6]; 10000 nM) [%]	cell viability ([7]; 1 nM) [%]	cell viability ([7]; 10 nM) [%]	cell viability ([7]; 100 nM) [%]	cell viability ([7]; 1000 nM) [%]	cell viability ([7]; 10000 nM) [%]	cell viability ([8]; 1 nM) [%]	cell viability ([8]; 10 nM) [%]	cell viability ([8]; 100 nM) [%]	cell viability ([8]; 1000 nM) [%]	cell viability ([8]; 10000 nM) [%]	cell viability ([9]; 1 nM) [%]	cell viability ([9]; 10 nM) [%]	cell viability ([9]; 100 nM) [%]	cell viability ([9]; 1000 nM) [%]	cell viability ([9]; 10000 nM) [%]	cell viability ([10]; 1 nM) [%]	cell viability ([10]; 10 nM) [%]	cell viability ([10]; 100 nM) [%]	cell viability ([10]; 1000 nM) [%]	cell viability ([10]; 10000 nM) [%]	drug sensitivity score [11]	drug sensitivity score [12]	drug sensitivity score [13]	drug sensitivity score [14]	drug sensitivity score [15]
CCCn1c(=O)c2[nH]cnc2n(-c2ccc(Cl)cc2)c1=O [arofylline]	> 10	> 10	> 10	> 10	> 10	103	99.1	102	96.8	98.9	108	108	101	98.3	96	104	102	99.1	100	101	87.3	97.6	94.4	87.9	95.5	97.7	95.4	103	96.8	92.2	0	0	0	0	0
O=c1cc(N2CCOCC2)nc2c3ccccc3ccn12 [compound-401]	> 10	> 10	> 10	> 10	> 10	96.2	99.8	97.2	101	95.5	102	97.9	98	98.3	95.9	93	108	99.4	82.8	78	96.8	108	96.4	99.1	85.8	93.8	94.4	97.9	99.5	107	0	0	2.5	0.2	0
O=C(NCc1ccncc1)C12CC3CC(C1)CC(c1ccc(Cl)cc1)(C3)C2	> 10	> 10	> 10	> 10	> 10	97.4	99.2	101	97.8	93.5	102	104	104	105	89.3	96.7	107	105	98	93.7	99.6	94.9	98.6	96	92.9	104	100	89	92.2	89.3	0	0	0	0	0.5
CC(=O)OCC(=O)[C@@]1(O)CC[C@H]2[C@@H]3CCC4=CC(=O)CC[C@]4(C)[C@H]3C(=O)C[C@@]21C [cortisone-acetate]	> 10	> 10	> 10	> 10	> 10	99.6	98.1	97	101	95.1	87.9	97.5	96.4	101	99.3	90	110	104	110	101	108	95.4	101	96.3	103	93.2	98.5	98.9	106	101	0	0	0	0	0
O=C1Nc2ccc(Cl)c3c2C1(CCCCN1CC=C(c2ccc(Cl)cc2)CC1)CCC3 (stereo not given) [DR-4485]	2.74	1.95	3.27	2.5	3.16	96.2	97.5	98.6	94.7	2.4	100	96.7	92.9	91.1	42.5	93.7	100	94.1	102	-0.2	103	95.3	99.6	92.3	4.8	105	87.6	103	99.9	1.7	6.2	4.6	5.4	6.5	5.5
CSc1ccccc1OCC(O)CNC(C)C (stereo not given) [tiprenolol]	> 10	> 10	> 10	> 10	> 10	97.9	96.2	106	101	99.3	100	98.5	98.6	91.8	86.7	98.6	92.6	102	99.9	98.5	108	102	93.6	83	113	104	106	100	97.3	103	0	0.3	0	0	0
O=c1c(O)c(-c2cc(O)c(O)c(O)c2)oc2cc(O)cc(O)c12 [myricetin]	> 10	> 10	> 10	> 10	> 10	93.6	105	97.4	99.6	103	94.1	97.7	95.4	95.8	97.5	96.9	91.9	106	94.4	96.3	97.2	99.2	98.8	101	96	105	98.5	96	102	105	0	0	0	0	0
CCCCc1ccc(O)cc1O [rucinol]	> 10	> 10	> 10	> 10	> 10	101	99	99.8	104	96.7	111	84.9	106	91.8	103	110	87.5	107	92.5	81.5	102	95.3	83.5	114	106	101	98	83.4	102	83.8	0	0	1.3	0	0.1
CN1c2c([nH]c(N)nc2=O)NC[C@@H]1CNc1ccc(C(=O)N[C@@H](CCC(=O)O)C(=O)O)cc1 [metafolin]	> 10	> 10	> 10	> 10	> 10	94.9	100	92.5	105	101	96.1	91.6	96.3	83.2	104	102	89.8	105	110	108	95.4	90.3	85.3	98.1	102	91.1	106	105	96.5	96.9	0	0	0	0	0
Cn1ncc2c(N3CCOCC3)nc(-c3cccc(O)c3)nc21	2.1	1.35	2.74	0.938	1.64	98.8	99.6	99.3	90.6	28.9	100	102	98.9	78	30.9	100	101	111	95.6	19.8	99.9	108	94.5	61.5	25.2	86.3	102	83.7	79.1	24.5	5.5	7	5.1	8.7	6.7
O[C@@](Cc1nc(CC2(C(F)(F)F)CC2)c[nH]1)(c1ccc(-n2cccn2)cc1)C(F)(F)F [MK-5046]	> 10	> 10	> 10	> 10	> 10	96	96.9	92.8	96.3	90.8	97.8	96.7	98.5	100	98.2	99.5	101	104	94.7	96.6	102	115	98.8	97	88.4	107	95.3	105	110	87.5	0	0	0	0.1	0
CCOc1ccc(-n2c([C@@H](C)N(Cc3cccnc3)C(=O)Cc3ccc(F)c(C(F)(F)F)c3)nc3ncccc3c2=O)cc1 (racemic)	> 10	> 10	> 10	> 10	> 10	104	96	96.2	99.2	95.9	96	97.2	98.6	103	105	105	100	97.9	108	93.7	103	97.6	99.3	99.9	90	93.8	91	92.8	95.2	88.4	0	0	0	0	0
CC1(C)[C@@H]2C[C@@H](O)[C@@](C)(O)[C@H]1C2 [2,3-cis/exo-pinanediol]	> 10	> 10	> 10	> 10	> 10	96.1	97.3	95.7	100	97.3	100	99.9	99.3	93.1	100	100	110	104	93.9	108	103	101	97.2	108	87.2	106	98.1	102	106	103	0	0	0	0	0
C=CC(=O)Nc1cc(Nc2nccc(-c3cn(C)c4ccccc34)n2)c(OC)cc1N(C)CCN(C)C [osimertinib]	1.86	1.19	1.8	1.44	0.374	95.7	99.2	92.3	83.6	5	95.9	93.8	90.4	57.7	0	99.6	98.8	104	82.4	6	82.7	97.2	94.2	72.6	9.1	92.6	92.9	72.2	36.7	0.7	8	10.4	8.1	8.8	15.8
